Columns and labels:
[1] = biological target: T1, recombinant human UGT1A10 (Homo sapiens, UniProt Q9HAW8); test: Ticagrelor glucuronidation screen, recombinant human UGT1A10; type: in vitro ADME; conditions: 10 μM ticagrelor
T1 construct: purchased BD Gentest; host or cells: baculovirus-infected insect cells
Method: (§1) Ticagrelor glucuronidation was investigated in an in vitro incubation system by using HLM, HIM, and recombinant human UGTs. The incubation system consisted of enzyme sources (HLM, HIM, or human recombinant UGTs), various concentrations of ticagrelor (dissolved in 50% methanol, 1% v/v, 1, 2, 5, 10, 20, 50, 100, 200, 500 μM of final concentration), alamethicin (50 μg/mg protein), 5 mM MgCl2, 100 mM tris-HCL buffer (pH 7.4), and 5 mM UDPGA in a total volume of 100 μl. Alamethicin is a pore-forming polypeptide used to activate UGTs in HLM and HIM ([Fisher et al., 2000]). Preliminary studies were conducted to determine the optimal protein concentrations and incubation times. Linear conditions of ticagrelor-O-Glu formation from ticagrelor, i.e., HLM, 0.2 mg of protein/ml and 60 min, HIM, 0.2 mg of protein/ml and 60 min, and recombinant human UGTs, 0.2 mg of protein/ml and 60 min were selected. The incubation mixture without UDPGA was placed on ice for 15 min to activate UGT by alamethicin. After pre-incubation for 5 min at 37°C, the reactions were started by the addition of UDPGA. After another 60 min of incubation at 37°C, the reaction was terminated by adding 100 μl of acetonitrile containing internal standard (diazepam). The mixture vortexed for 2 min and then centrifuged at 14,000 rpm for 10 min at 4°C. […]

[2] = biological target: T2, UGT1A1 (Homo sapiens, UniProt P22309); test: Ticagrelor glucuronidation by recombinant human UGT1A1; type: in vitro ADME; design: purchased BD Gentest; host or cells: baculovirus-infected insect cells; conditions: recombinant human UGT1A1, pH 7.4
T2 sequence (P22309 26-533): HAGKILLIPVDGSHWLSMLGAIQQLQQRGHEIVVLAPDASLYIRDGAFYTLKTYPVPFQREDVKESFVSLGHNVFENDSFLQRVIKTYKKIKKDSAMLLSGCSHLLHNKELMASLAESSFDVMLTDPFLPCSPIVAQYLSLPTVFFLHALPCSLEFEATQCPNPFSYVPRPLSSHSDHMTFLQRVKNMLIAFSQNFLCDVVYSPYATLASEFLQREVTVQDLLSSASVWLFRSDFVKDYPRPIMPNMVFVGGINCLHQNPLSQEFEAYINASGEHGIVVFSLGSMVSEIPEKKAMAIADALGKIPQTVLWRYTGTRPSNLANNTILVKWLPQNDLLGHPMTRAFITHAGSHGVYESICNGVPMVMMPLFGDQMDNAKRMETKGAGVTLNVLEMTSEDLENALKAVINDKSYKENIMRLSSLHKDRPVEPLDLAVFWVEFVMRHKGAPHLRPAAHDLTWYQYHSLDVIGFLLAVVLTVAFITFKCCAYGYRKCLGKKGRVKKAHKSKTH
Method: as §1, with “alamethicin.” for “alamethicin. After pre-incubation for 5 min at 37°C, the reactions were started by the addition of UDPGA. After another 60 min of incubation at 37°C, the reaction was terminated by adding 100 μl of acetonitrile containing internal standard (diazepam). The mixture vortexed for 2 min and then centrifuged at 14,000 rpm for 10 min at 4°C.”
Kinetic analyses were performed using the mean values of triplicate determinations with either pooled HLM, HIM, or recombinant human UGTs. All data were analyzed by nonlinear regression analysis using the GraphPad Prism 6 (GraphPad Software Inc., CA, United States). […] Intrinsic clearance (CLint) was calculated by dividing Vmax by Km.

T1 sequence (Q9HAW8 26-530): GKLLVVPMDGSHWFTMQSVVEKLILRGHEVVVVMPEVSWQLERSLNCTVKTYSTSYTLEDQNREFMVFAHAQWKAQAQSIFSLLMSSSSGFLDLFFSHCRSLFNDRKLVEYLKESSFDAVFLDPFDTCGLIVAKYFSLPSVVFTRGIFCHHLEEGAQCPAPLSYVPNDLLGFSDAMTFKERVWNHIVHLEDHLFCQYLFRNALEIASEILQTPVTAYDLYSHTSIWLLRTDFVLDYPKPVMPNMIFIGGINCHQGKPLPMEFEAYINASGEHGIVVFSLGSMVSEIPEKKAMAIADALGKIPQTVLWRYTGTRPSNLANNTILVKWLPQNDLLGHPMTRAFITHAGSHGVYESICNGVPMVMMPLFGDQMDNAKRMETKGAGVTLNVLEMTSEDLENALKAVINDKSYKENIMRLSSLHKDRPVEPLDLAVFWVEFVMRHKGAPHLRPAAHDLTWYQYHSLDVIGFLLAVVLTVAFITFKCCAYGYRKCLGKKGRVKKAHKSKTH

glucuronidation activity for ticagrelor [1]: no glucuronidation activities
microsomal CLint [2]: 0.03 µL/min/mg
Structure (SMILES): CCCSc1nc(N[C@@H]2C[C@H]2c2ccc(F)c(F)c2)c2nnn([C@@H]3C[C@H](OCCO)[C@@H](O)[C@H]3O)c2n1 [Ticagrelor]
